Laboratory results: patent publication US4540708A, “Sulfenyl carbamate derivatives and insecticidal compositions containing the same” (priority 1982, dated 1985)
Like-named read-outs stand apart in the source and are kept apart here.

Key:
[1] = tested on: mites, eelworms and other agricultural and forestry noxious insects and household noxious insects; conditions: known compounds, background; cited from earlier work
warm-blooded animals = conditions: known compounds, background; cited from earlier work
[2] = tested on: tobacco cutworm (Spodoptera litura); assay: Test Example 1: mortality of third-instar larvae of tobacco cutworm on cabbage, 3 days; type: in vivo; conditions: 72 h
Description: Ten third-instar larvae of tobacco cutworm (Spodoptera litura) were placed on a cabbage (one-month-old seedling) planted in a pot, and a 50% emulsion of the compound to be tested was diluted to a specified concentration and applied to the leaves of the plant to fully wet them. The test compound of each specified concentration was tested on two pots.

[3] = tested on: green rice leafhopper (Nephotettix cincticeps); assay: Test Example 2: mortality of female adults of green rice leafhopper on paddy rice, 3 days; type: in vivo; conditions: 72 h
Description: An emulsion of specified concentration was prepared from a 50% wettable powder of the compound to be tested and applied to the leaves of paddy rice (one-month-old seedlings) planted in a pot to fully wet the leaves. After the emulsion had been dried, the pot was covered with a net cage, into which 10 female adults of green rice leafhopper (Nephotettix cincticeps) were released. The compound of each specified concentration was tested on two pots.

[4] = Test Example 4: acute toxicity by oral administration in male mice (Litchfield-Wilcoxon); parameters: unit not given here; conditions: mouse, in vivo, mortality on the seventh day
Description: Compounds of this invention were tested on male mice for acute toxicity by oral administration.

[5] = 125 ppm active ingredient, 3 days, read-out: Mortality
[6] = 250 ppm active ingredient, 3 days, read-out: Mortality
[7] = 500 ppm active ingredient, 3 days, read-out: Mortality
[8] = 1000 ppm active ingredient, 3 days, read-out: Mortality
[9] = 200 ppm active ingredient, 3 days, read-out: Mortality
[10] = 400 ppm active ingredient, 3 days, read-out: Mortality
[11] = 800 ppm active ingredient, 3 days, read-out: Mortality

SMILES | insecticidal activity (in words) [1] | toxicity to warm-blooded animals (in words) (warm-blooded animals) | mortality at 125 ppm [2, 5] | mortality at 250 ppm [2, 6] | mortality at 125 ppm [2] | mortality at 250 ppm [2] | mortality at 500 ppm [2] | mortality at 1000 ppm [2] | mortality at 200 ppm [3] | mortality at 400 ppm [3] | mortality at 800 ppm [3] | LD50 at 168 h [4] | mortality at 500 ppm [2, 7] | mortality at 1000 ppm [2, 8] | mortality at 200 ppm [3, 9] | mortality at 400 ppm [3, 10] | mortality at 800 ppm [3, 11]
CNC(=O)Oc1cccc2c1OC(C)(C)C2 [Control 1, 2,3dihydro-2,2-dimethylbenzofuran-7-yl-N--methylcarbamate] | high insecticidal activity | high toxicity to warm-blooded animals | – | – | – | – | – | – | – | – | – | – | – | – | – | – | –
CNC(=O)ON=C(C)SC [Control*, S--methyl N--[(methylcarbamoyl)oxy]thioacetimidate] | – | high toxicity to warm-blooded animals | – | – | – | – | – | – | – | – | – | – | – | – | – | – | –
CNC(=O)ON=C(C)SC [Control*] | – | – | 85% | 90% | – | – | – | – | – | – | – | – | – | – | – | – | –
COCCCN(CCC(=O)OC)SN(C)C(=O)Oc1cccc2c1OC(C)(C)C2 [Example 1, 2,3-dihydro-2,2-dimethylbenzofuran-7-yl N-[N-(3-methoxypropyl)-N-methoxycarbonylethylaminosulfenyl]N-methyl carbamate] | – | – | – | – | 40% | 65% | 80% | 90% | 70% | 90% | 100% | – | – | – | – | – | –
COCCN(CCC#N)SN(C)C(=O)Oc1cccc2c1OC(C)(C)C2 [Example 2, 2,3-dihydro-2,2-dimethylbenzofuran-7-yl N-[N-(2-methoxyethyl)-N-cyanoethylaminosulfenyl]N-methyl-carbamate] | – | – | – | – | 40% | 55% | 70% | 85% | 65% | 85% | 100% | 98000 | – | – | – | – | –
COCCN(CCC(=O)OC)SN(C)C(=O)ON=C(C)SC [Example 3, S-methyl N-[{N-methyl-N-(N-methoxyethyl-N-methoxycarbonylethylaminosulfenyl)carbamoyl}oxy]-thioacetimidate] | – | – | 55% | 70% | – | – | – | – | – | – | – | – | 85% | 90% | 65% | 90% | 100%
COCCN(CC(=O)OC)SN(C)C(=O)Oc1cccc2c1OC(C)(C)C2 [Example 4] | – | – | – | – | 45% | 65% | 80% | 90% | 75% | 95% | 100% | 90000 | – | – | – | – | –
COCCN(CC#N)SN(C)C(=O)Oc1cccc2c1OC(C)(C)C2 [Example 5] | – | – | – | – | 50% | 70% | 80% | 90% | 70% | 90% | 100% | 68000 | – | – | – | – | –
CCOC(=O)CN(CCCOC)SN(C)C(=O)Oc1cccc2c1OC(C)(C)C2 [Example 6] | – | – | – | – | 55% | 70% | 80% | 90% | 70% | 95% | 100% | – | – | – | – | – | –
COC(=O)CCN(CCCOc1ccccc1)SN(C)C(=O)Oc1cccc2c1OC(C)(C)C2 [Example 7] | – | – | – | – | 40% | 60% | 75% | 85% | 60% | 80% | 100% | – | – | – | – | – | –
CCOCCN(CCC(=O)OC)SN(C)C(=O)Oc1cccc2c1OC(C)(C)C2 [Example 8] | – | – | – | – | 40% | 60% | 80% | 90% | 75% | 90% | 100% | – | – | – | – | – | –
COC(=O)CCN(CCOC(C)C)SN(C)C(=O)Oc1cccc2c1OC(C)(C)C2 [Example 9] | – | – | – | – | 40% | 60% | 80% | 90% | 75% | 90% | 100% | – | – | – | – | – | –
COC(=O)CCN(CCOC1CCCCC1)SN(C)C(=O)Oc1cccc2c1OC(C)(C)C2 [Example 10] | – | – | – | – | 35% | 50% | 70% | 85% | 65% | 85% | 100% | – | – | – | – | – | –
CC(C)OCCCN(CCC#N)SN(C)C(=O)Oc1cccc2c1OC(C)(C)C2 [Example 11] | – | – | – | – | 35% | 50% | 70% | 80% | 70% | 90% | 100% | – | – | – | – | – | –
CCCCOC(=O)CCN(CCOC)SN(C)C(=O)Oc1cccc2c1OC(C)(C)C2 [Example 12] | – | – | – | – | 40% | 55% | 75% | 85% | 70% | 85% | 100% | – | – | – | – | – | –
COC(=O)CCN(CCOCc1ccccc1)SN(C)C(=O)Oc1cccc2c1OC(C)(C)C2 [Example 13] | – | – | – | – | 40% | 55% | 70% | 85% | 65% | 85% | 100% | – | – | – | – | – | –
COC(=O)CCN(CCCCOc1ccccc1)SN(C)C(=O)Oc1cccc2c1OC(C)(C)C2 [Example 14] | – | – | – | – | 35% | 50% | 70% | 80% | 65% | 85% | 100% | – | – | – | – | – | –
COC(=O)CCN(CCCCCOc1ccccc1)SN(C)C(=O)Oc1cccc2c1OC(C)(C)C2 [Example 15] | – | – | – | – | 40% | 50% | 70% | 80% | 65% | 80% | 100% | – | – | – | – | – | –
COCCCN(CCC(=O)OC)SN(C)C(=O)ON=C(C)SC [Example 16] | – | – | 100% | 100% | – | – | – | – | – | – | – | – | 100% | 100% | 90% | 100% | 100%
COCCN(CCC#N)SN(C)C(=O)ON=C(C)SC [Example 17] | – | – | 85% | 95% | – | – | – | – | – | – | – | – | 100% | 100% | 80% | 95% | 100%
COCCN(CC#N)SN(C)C(=O)ON=C(C)SC [Example 18] | – | – | 100% | 100% | – | – | – | – | – | – | – | – | 100% | 100% | 80% | 95% | 100%
CCOC(=O)CN(CCOC)SN(C)C(=O)ON=C(C)SC [Example 19] | – | – | 90% | 100% | – | – | – | – | – | – | – | – | 100% | 100% | 90% | 100% | 100%
COC(=O)CCN(CCCOc1ccccc1)SN(C)C(=O)ON=C(C)SC [Example 20] | – | – | 90% | 95% | – | – | – | – | – | – | – | – | 100% | 100% | 80% | 90% | 100%
COC(=O)CCN(CCOC(C)C)SN(C)C(=O)ON=C(C)SC [Example 21] | – | – | 100% | 100% | – | – | – | – | – | – | – | – | 100% | 100% | 85% | 100% | 100%
COC(=O)CCN(CCOC1CCCCC1)SN(C)C(=O)ON=C(C)SC [Example 22] | – | – | 90% | 100% | – | – | – | – | – | – | – | – | 100% | 100% | 80% | 95% | 100%
CSC(C)=NOC(=O)N(C)SN(CCC#N)CCCOC(C)C [Example 23] | – | – | 85% | 95% | – | – | – | – | – | – | – | – | 100% | 100% | 80% | 95% | 100%
CCCCOC(=O)CCN(CCOC)SN(C)C(=O)ON=C(C)SC [Example 24] | – | – | 80% | 95% | – | – | – | – | – | – | – | – | 100% | 100% | 85% | 95% | 100%
COC(=O)CCN(CCCCOc1ccccc1)SN(C)C(=O)ON=C(C)SC [Example 25] | – | – | 80% | 90% | – | – | – | – | – | – | – | – | 100% | 100% | 85% | 90% | 100%
